Test results from US9023844B2, “Heterocyclylpyri (mi) dinylpyrazole as fungicidals” (Bayer Intellectual Property GmbH, priority 2011, dated 2015).
Where two headings read alike, the source gives them in different places.

What was measured:
Venturia inaequalis = experiment: Example I: Venturia test (apples) / preventive; conditions: 100 ppm of active ingredient, preventive spray, evaluated 10 days after inoculation
Procedure: After the spray coating has dried on, the plants are inoculated with an aqueous conidia suspension of the causal agent of apple scab (Venturia inaequalis) and then remain for 1 day in an incubation cabinet at approximately 20° C. and a relative atmospheric humidity of 100%.
The plants are then placed in a greenhouse at approximately 21° C. and a relative atmospheric humidity of approximately 90%.
The test is evaluated 10 days after the inoculation.

Fusarium graminearum [1] = type: in vivo; conditions: in vivo
[2] = tested on: DON/Acetyl-DON production by Fusarium graminearum; experiment: microbe, parasite or virus in culture; type: cell-based
Pyrenophora teres [3] = experiment: Example D: Pyrenophora test (barley) / preventive; type: in vivo; conditions: in vivo
[4] = Determination of log P values by HPLC on a reverse phase column (C18), EEC-Directive 79/831 Annex V.A8 (Methods A, B, C); type: physicochemical; conditions: for chromatographic logP: reverse phase C18 HPLC column
In short: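 Three C18 chromatographic methods following EEC-Directive 79/831 Annex V.A8 gave the logP values. Method C (UPLC, 2.1 mm column) ran at 40 °C and 0.8 mL/min with a 3.25 min 10–95% acetonitrile gradient. Methods A and B both ran at 55 °C and 2.0 mL/min, with gradients of 10–95% in 4.25 min and 5–95% in 1.70 min.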

Plasmopara viticola = experiment: Example H: Plasmopara test (grapevines) / preventive; type: in vivo; conditions: in vivo
Sphaerotheca fuliginea [5] = experiment: Example A: Sphaerotheca test (cucumber) / preventive; type: in vivo; conditions: in vivo
Septoria tritici = experiment: Example J: Septoria tritici test (wheat) / preventive; type: in vivo; conditions: in vivo
Puccinia recondita [6] = experiment: Example E: Puccinia test (wheat) / preventive; type: in vivo; conditions: in vivo
Pyricularia oryzae [7] = type: in vivo; conditions: in vivo
Leptosphaeria nodorum = experiment: Example C: Leptosphaeria test (wheat) / preventive; type: in vivo; conditions: in vivo
Uromyces appendiculatus [8] = experiment: Example B: Uromyces test (beans) / preventive; type: in vivo; conditions: in vivo
Fusarium graminearum [9] = experiment: microbe, parasite or virus in culture; type: cell-based
[10] = tested on: Fusarium nivale (var. majus); experiment: Example K: Fusarium nivale (var. majus) test (wheat) / preventive; type: in vivo; conditions: 500 ppm of active ingredient, preventive spray, evaluated 5 days after inoculation
Procedure: After the spray coating has been dried, the plants are slightly injured by using a sandblast and afterwards they are sprayed with a conidia suspension of Fusarium nivale (var. majus).
The test is evaluated 5 days after the inoculation.

Phytophthora infestans [11] = type: in vivo; conditions: in vivo
Pyricularia oryzae [12] = type: in vivo
Pyrenophora teres [13] = conditions: in vivo
Botrytis cinerea = experiment: Example N: in vivo preventive test on Botrytis cinerea (grey mould); conditions: dose of 500 ppm; gherkin plants; grading 4-5 days after contamination
Procedure: The active ingredients tested are prepared by homogenization in a mixture of acetone/tween/DMSO and then diluted with water to obtain the desired active material.
Gherkin plants (“Vert petit de Paris” variety), sown in starter cups on a 50/50 peat soil-pozzolana substrate and grown at 24° C., are treated at the Z11 cotyledon stage by spraying with the active ingredient prepared as described above. Plants, used as controls, are treated with the mixture of acetone/tween/DMSO/water not containing the active material.
After 24 hours, the plants are contaminated by spraying the cotyledons with an aqueous suspension of cryopreserved Botrytis cinerea spores (50 000 spores per ml). The spores are suspended in a nutrient solution composed of 10 g/L of PDB, 50 g/L of D-Fructose, 2 g/L of NH4NO3 and 1 g/L of KH2PO4. The contaminated gherkin plants are incubated at 17° C. and at 80% relative humidity.
Grading (% of efficacy) is carried out 4-5 days after the contamination, in comparison with the control plants.

Sphaerotheca fuliginea [14] = conditions: in vivo
Puccinia recondita [15] = conditions: in vivo
Uromyces appendiculatus [16] = conditions: in vivo
Phytophthora infestans [17] = conditions: in vivo
Alternaria brassicae = conditions: in vivo
[18] = Method A: HPLC, reverse phase C18, acetonitrile (0.1% formic acid)/water (0.09% formic acid) gradient
[19] = Method B (HPLC, reverse phase C18)

SMILES	efficacy (Venturia inaequalis) [%]	efficacy (Fusarium graminearum [1]) [%]	Inhibition of DON/AcDON in % ([2]; at 50 μM) [%]	efficacy (Pyrenophora teres [3]) [%]	LogP [4, 18]	efficacy (Plasmopara viticola) [%]	efficacy (Sphaerotheca fuliginea [5]) [%]	efficacy (Septoria tritici) [%]	efficacy (Puccinia recondita [6]) [%]	efficacy (Pyricularia oryzae [7]) [%]	efficacy (Leptosphaeria nodorum) [%]	efficacy (Uromyces appendiculatus [8]) [%]	Growth inhibition of Fusarium graminearum in % (Fusarium graminearum [9]; at 50 μM) [%]	efficacy [10] [%]	efficacy (Phytophthora infestans [11]) [%]	LogP [4, 19]	protection (% of efficacy) (Pyricularia oryzae [12]; in vivo) [%]	further results
CCC(=O)Nc1cc(-c2c(-c3ccc(F)cc3)nn3c2OCCC3)ccn1 [Example 5]	98	100	100	95	1.46	100	95	92	100	100	90	93	62	100	95			
CCOC(=O)Nc1cc(-c2c(-c3ccccc3)nn3c2OCCC3)ccn1 [Example 9]	100	100	100	100		94	95	80	100	94	95	94	100	93	95	1.51		
CCC(C)C(=O)Nc1cc(-c2c(-c3ccccc3)nn3c2OCCC3)ccn1 (centres unmarked) [Example 10]	99	90	100	80		94	100	86	100	94	80	94	95	100	95	1.63		
CC(C)C(=O)Nc1cc(-c2c(-c3ccc(F)cc3)nn3c2OCCC3)ccn1 [Example 22]	99	100	100	95		100	100	100	100	94	90	94	99	100	95	1.54		
O=C(Nc1cc(-c2c(-c3ccc(F)cc3)nn3c2OCCC3)ccn1)C1CCOCC1 [Example 28]	98	86	99	95		92	100	88	100	94	95	94	94	100	95	1.37		
CCC(=O)N(C(=O)CC)c1cc(-c2c(-c3ccc(F)cc3)nn3c2OCCC3)ccn1 [Example 53]	100	100	100	100	2.74	98	95	75	95	90	90	74	79	100	95			
O=C(Nc1cc(-c2c(-c3ccc(F)cc3)nn3c2OCCC3)ccn1)C1C2CCCCC21 (centres unmarked) [Example 65]																2.13	80	protection (% of efficacy) (Pyrenophora teres [13]): 71%
O=C(Nc1cc(-c2c(-c3ccc(F)cc3)nn3c2OCCC3)ccn1)C1SCCS1 [Example 69]			96										83			2.1	100	protection (% of efficacy) (Botrytis cinerea): 100%; protection (% of efficacy) (Sphaerotheca fuliginea [14]): 100%; protection (% of efficacy) (Puccinia recondita [15]): 81%; protection (% of efficacy) (Pyrenophora teres [13]): 79%
CCC(=O)Nc1cc(-c2c(-c3ccc(F)cc3)nn3c2O[C@H](C)C[C@@H]3C)ccn1 [Example 73]			100		1.74								83				90	protection (% of efficacy) (Sphaerotheca fuliginea [14]): 100%; protection (% of efficacy) (Puccinia recondita [15]): 88%; protection (% of efficacy) (Uromyces appendiculatus [16]): 86%; protection (% of efficacy) (Pyrenophora teres [13]): 94%; protection (% of efficacy) (Phytophthora infestans [17]): 85%
CCC(=O)Nc1cc(-c2c(-c3ccc(F)cc3)nn3c2OCC(F)(F)C3)ccn1 [Example 74]					1.9												80	protection (% of efficacy) (Sphaerotheca fuliginea [14]): 94%; protection (% of efficacy) (Puccinia recondita [15]): 88%; protection (% of efficacy) (Pyrenophora teres [13]): 81%; protection (% of efficacy) (Phytophthora infestans [17]): 79%
CCC(=O)Nc1cc(-c2c(-c3ccc(F)cc3)nn3c2OC[Si](C)(C)C3)ccn1 [Example 77]	96	100		95		100	95	71	100	90	94	94		90	100			Inhibition of DON/AcDON in % ([2]; 50 µM): 100%; LogP ([4]; Method C (HPLC, reverse phase C18)): 2.15; Growth inhibition of Fusarium graminearum in % (Fusarium graminearum [9]; 50 µM): 91%
C[Si]1(C)COc2c(-c3ccnc(N)c3)c(-c3cccs3)nn2C1 [Example 89, 4-[3,3-dimethyl-7-(2-thienyl)-3,4-dihydro-2H-pyrazolo[5,1-b][1,3,5]oxazasilin-8-yl]pyridin-2-amine]																		protection (% of efficacy) (Pyricularia oryzae [12]; dose of 500 ppm, rice plants, grading 6 days after contamination): 75%; chromatographic logP ([4]; Method C (HPLC, reverse phase C18), read-out: LogP): 1.55; chromatographic logP ([4]; pH 2.3, intermediates of formula [II], HPLC, reverse phase C18, read-out: LogP (pH 2.3)): 1.55
CCC(=O)N(C(=O)CC)c1cc(-c2c(-c3ccc(F)cc3F)nn3c2OCCC3)ccn1 [Example 95]			97		2.68								77				83	
CCC(=O)Nc1cc(-c2c(-c3ccc(F)cc3)nn3c(C)coc23)ccn1 [Example 103]					1.86													protection (% of efficacy) (Botrytis cinerea): 80%; protection (% of efficacy) (Alternaria brassicae): 93%
CCC(=O)Nc1cc(-c2c(-c3ccc(F)cc3)nn3c(CC)coc23)ccn1 [Example 104]	93				2.23	95									93		75	protection (% of efficacy) (Botrytis cinerea): 85%; protection (% of efficacy) (Uromyces appendiculatus [16]): 88%; protection (% of efficacy) (Alternaria brassicae): 79%
CCC(=O)Nc1cc(-c2c(-c3ccc(F)cc3)nn3ccoc23)ccn1 [Example 105]	93		99		1.61	100							83		95			protection (% of efficacy) (Botrytis cinerea): 100%; protection (% of efficacy) (Puccinia recondita [15]): 75%; protection (% of efficacy) (Uromyces appendiculatus [16]): 96%; protection (% of efficacy) (Alternaria brassicae): 93%; protection (% of efficacy) (Pyrenophora teres [13]): 81%
CCC(=O)Nc1cc(-c2c(-c3ccccc3)nn3ccoc23)ccn1 [Example 106]			95		1.46								65					protection (% of efficacy) (Botrytis cinerea): 100%; protection (% of efficacy) (Sphaerotheca fuliginea [14]): 98%; protection (% of efficacy) (Uromyces appendiculatus [16]): 81%; protection (% of efficacy) (Alternaria brassicae): 79%
